# Patent US10913744B2, “LRRK2 inhibitors and methods of making and using the same” (Dana-Farber Cancer Institute, Inc., priority 2015, dated 2021)
# Read-outs that look alike come from different tables or passages of the source.
# What was measured:
# PKMYT1 = PKMYT1 (Homo sapiens (Human), UniProt Q99640); test: KinomeScan; type: binding; conditions: 1 uM
# TLK1 = TLK1 (Homo sapiens (Human), UniProt Q9UKI8); test: Dundee profiling
# PIM1 = PIM1 (Homo sapiens (Human), UniProt P11309); test: Dundee profiling
# MAP4K5 = MAP4K5 (Homo sapiens (Human), UniProt Q9Y4K4); test: Dundee profiling
# AMPK = test: Dundee profiling
# FLT3 (ITD) = test: KinomeScan; type: binding; conditions: 1 uM
# JNK1 = JNK1 (Homo sapiens (Human), UniProt P45983); test: KinomeScan; type: binding; conditions: 1 uM
# EF2K = EF2K (Homo sapiens (Human), UniProt O00418); test: Dundee profiling
# ULK2 = ULK2 (Homo sapiens (Human), UniProt Q8IYT8); test: Dundee profiling
# MET (Y1235D) = MET (Y1235D) (Homo sapiens (Human), UniProt P08581, Y1235D); test: KinomeScan; type: binding; conditions: 1 uM
# TTK = TTK (Homo sapiens (Human), UniProt P33981); test: Dundee profiling
# OSR1 = OSR1 (Homo sapiens (Human), UniProt O95747); test: Dundee profiling
# HIPK2 = HIPK2 (Homo sapiens (Human), UniProt Q9H2X6); test: Dundee profiling
# MAPKAP-K2 = MAPKAP-K2 (Homo sapiens (Human), UniProt P49137); test: Dundee profiling
# p38-alpha = p38-alpha (Homo sapiens (Human), UniProt Q16539); test: KinomeScan; type: binding; conditions: 1 uM
# CDK2-Cyclin A = CDK2-Cyclin A (Homo sapiens (Human), UniProt P24941); test: Dundee profiling
# CDK8 = CDK8 (Homo sapiens (Human), UniProt P49336); test: KinomeScan; type: binding; conditions: 1 uM
# EPHB2 = EPHB2 (Homo sapiens (Human), UniProt P29323); test: Dundee profiling
# PAK4 = PAK4 (Homo sapiens (Human), UniProt O96013); test: Dundee profiling
# EGFR (E746-A750del) = EGFR (E746-A750del) (Homo sapiens (Human), UniProt P00533, DEL746-750); test: KinomeScan; type: binding; conditions: 1 uM
# p38d MAPK = p38d MAPK (Homo sapiens (Human), UniProt O15264); test: Dundee profiling
# SIK = SIK (Homo sapiens (Human), UniProt P57059); test: KinomeScan; type: binding; conditions: 1 uM
# DYRK3 = DYRK3 (Homo sapiens (Human), UniProt O43781); test: Dundee profiling
# wild type LRRK2 = wild type LRRK2 (Homo sapiens (Human), UniProt Q5S007); test: LRRK2 enzyme kinase assay, wild type; type: biochemical; conditions: Table 1; ATP at Km 36 μm; read-out: Enzyme IC50 wt
# HIPK1 = HIPK1 (Homo sapiens (Human), UniProt Q86Z02); test: Dundee profiling
# MSK1 = MSK1 (Homo sapiens (Human), UniProt O75582); test: Dundee profiling
# EPH-B4 = EPH-B4 (Homo sapiens (Human), UniProt P54760); test: Dundee profiling
# CDK3 = CDK3 (Homo sapiens (Human), UniProt Q00526); test: KinomeScan; type: binding; conditions: 1 uM
# IRAK4 = IRAK4 (Homo sapiens (Human), UniProt Q9NWZ3); test: KinomeScan; type: binding; conditions: 1 uM
# PHK = test: Dundee profiling
# p38g MAPK = p38g MAPK (Homo sapiens (Human), UniProt P53778); test: Dundee profiling
# CSNK1G3 = CSNK1G3 (Homo sapiens (Human), UniProt Q9Y6M4); test: KinomeScan; type: binding; conditions: 1 uM
# WNK1 = WNK1 (Homo sapiens (Human), UniProt Q9H4A3); test: Dundee profiling
# DCAMKL1 = DCAMKL1 (Homo sapiens (Human), UniProt O15075); test: KinomeScan; type: binding; conditions: 1 uM
# TBK1 = TBK1 (Homo sapiens (Human), UniProt Q9UHD2); test: Dundee profiling
# [1] = read-out: percent remaining enzymatic activity, I1, 1 μM
# [2] = read-out: percent remaining enzymatic activity, I10
# [3] = read-out: percent remaining enzymatic activity
# Sequence of EPH-B4 (P54760 16-987, species assumed): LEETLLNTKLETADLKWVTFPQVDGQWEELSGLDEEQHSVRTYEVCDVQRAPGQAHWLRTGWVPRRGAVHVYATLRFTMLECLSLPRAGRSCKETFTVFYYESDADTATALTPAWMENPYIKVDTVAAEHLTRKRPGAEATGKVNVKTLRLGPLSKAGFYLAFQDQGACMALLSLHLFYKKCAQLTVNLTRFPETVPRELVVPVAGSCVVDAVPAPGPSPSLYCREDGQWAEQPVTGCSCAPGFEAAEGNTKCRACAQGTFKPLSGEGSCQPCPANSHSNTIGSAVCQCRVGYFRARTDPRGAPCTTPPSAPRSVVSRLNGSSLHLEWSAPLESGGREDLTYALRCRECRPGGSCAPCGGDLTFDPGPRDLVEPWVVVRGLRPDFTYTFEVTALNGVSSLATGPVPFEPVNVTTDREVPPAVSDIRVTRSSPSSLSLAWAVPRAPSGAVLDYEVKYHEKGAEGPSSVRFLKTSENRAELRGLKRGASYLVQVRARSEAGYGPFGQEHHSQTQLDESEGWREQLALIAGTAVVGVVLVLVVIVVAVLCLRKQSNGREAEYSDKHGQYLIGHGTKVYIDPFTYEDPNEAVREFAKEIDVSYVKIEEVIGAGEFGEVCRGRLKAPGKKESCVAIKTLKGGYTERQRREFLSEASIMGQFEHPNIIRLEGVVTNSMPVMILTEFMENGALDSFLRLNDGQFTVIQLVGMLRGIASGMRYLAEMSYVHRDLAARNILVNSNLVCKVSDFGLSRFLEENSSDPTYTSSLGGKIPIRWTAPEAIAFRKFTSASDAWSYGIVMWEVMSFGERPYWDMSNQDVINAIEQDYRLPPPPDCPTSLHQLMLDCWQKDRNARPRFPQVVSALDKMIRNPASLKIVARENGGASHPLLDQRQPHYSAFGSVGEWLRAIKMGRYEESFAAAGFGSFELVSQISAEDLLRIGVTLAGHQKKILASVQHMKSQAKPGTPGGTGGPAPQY
# Sequence of p38g MAPK (P53778 whole entry): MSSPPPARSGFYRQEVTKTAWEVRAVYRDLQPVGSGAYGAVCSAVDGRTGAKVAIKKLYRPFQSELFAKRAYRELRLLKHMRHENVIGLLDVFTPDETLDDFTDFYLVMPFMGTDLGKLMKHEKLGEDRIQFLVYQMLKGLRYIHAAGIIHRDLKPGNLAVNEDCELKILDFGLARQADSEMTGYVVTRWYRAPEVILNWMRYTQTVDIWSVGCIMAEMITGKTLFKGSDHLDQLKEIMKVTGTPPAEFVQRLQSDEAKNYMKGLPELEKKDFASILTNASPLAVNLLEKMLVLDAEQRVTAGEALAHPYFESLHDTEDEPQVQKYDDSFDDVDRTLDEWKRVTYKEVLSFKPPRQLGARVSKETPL
# Sequence of PAK4 (O96013 whole entry, species assumed): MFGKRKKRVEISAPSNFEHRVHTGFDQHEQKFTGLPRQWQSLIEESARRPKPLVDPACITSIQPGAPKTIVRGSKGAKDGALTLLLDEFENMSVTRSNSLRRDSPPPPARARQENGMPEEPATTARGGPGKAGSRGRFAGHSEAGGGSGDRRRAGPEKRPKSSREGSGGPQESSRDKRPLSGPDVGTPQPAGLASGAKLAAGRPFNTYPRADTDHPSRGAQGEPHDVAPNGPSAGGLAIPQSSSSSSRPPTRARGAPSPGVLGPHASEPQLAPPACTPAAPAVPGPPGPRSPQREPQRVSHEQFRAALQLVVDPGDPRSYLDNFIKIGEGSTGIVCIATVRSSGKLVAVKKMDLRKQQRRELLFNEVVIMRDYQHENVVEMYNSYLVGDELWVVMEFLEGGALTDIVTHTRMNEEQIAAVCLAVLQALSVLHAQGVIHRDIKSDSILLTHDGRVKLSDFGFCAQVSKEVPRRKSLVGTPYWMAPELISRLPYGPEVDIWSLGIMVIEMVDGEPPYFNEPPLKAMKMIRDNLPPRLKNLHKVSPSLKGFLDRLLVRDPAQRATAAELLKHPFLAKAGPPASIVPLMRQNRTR
# Sequence of TBK1 (Q9UHD2 whole entry, looked up, species assumed): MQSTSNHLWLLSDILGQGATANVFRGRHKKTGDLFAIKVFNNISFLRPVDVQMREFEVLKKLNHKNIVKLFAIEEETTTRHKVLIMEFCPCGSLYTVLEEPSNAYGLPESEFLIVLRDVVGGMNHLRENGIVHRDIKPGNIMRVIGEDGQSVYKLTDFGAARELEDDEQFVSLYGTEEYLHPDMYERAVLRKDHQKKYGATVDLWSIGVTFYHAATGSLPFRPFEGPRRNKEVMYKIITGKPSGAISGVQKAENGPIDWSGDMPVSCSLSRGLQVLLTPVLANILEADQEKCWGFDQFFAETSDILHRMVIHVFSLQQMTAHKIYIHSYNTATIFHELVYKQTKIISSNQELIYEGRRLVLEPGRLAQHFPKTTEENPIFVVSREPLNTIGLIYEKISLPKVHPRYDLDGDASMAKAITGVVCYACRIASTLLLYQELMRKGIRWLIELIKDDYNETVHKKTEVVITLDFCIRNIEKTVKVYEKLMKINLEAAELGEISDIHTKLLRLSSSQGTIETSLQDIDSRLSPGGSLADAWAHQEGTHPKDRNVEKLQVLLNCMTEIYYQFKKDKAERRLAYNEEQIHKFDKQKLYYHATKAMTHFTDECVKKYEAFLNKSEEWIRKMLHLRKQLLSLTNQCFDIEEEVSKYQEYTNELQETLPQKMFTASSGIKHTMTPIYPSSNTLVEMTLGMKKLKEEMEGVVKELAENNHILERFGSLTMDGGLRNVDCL
# Sequence of EPHB2 (P29323 19-1055, species assumed): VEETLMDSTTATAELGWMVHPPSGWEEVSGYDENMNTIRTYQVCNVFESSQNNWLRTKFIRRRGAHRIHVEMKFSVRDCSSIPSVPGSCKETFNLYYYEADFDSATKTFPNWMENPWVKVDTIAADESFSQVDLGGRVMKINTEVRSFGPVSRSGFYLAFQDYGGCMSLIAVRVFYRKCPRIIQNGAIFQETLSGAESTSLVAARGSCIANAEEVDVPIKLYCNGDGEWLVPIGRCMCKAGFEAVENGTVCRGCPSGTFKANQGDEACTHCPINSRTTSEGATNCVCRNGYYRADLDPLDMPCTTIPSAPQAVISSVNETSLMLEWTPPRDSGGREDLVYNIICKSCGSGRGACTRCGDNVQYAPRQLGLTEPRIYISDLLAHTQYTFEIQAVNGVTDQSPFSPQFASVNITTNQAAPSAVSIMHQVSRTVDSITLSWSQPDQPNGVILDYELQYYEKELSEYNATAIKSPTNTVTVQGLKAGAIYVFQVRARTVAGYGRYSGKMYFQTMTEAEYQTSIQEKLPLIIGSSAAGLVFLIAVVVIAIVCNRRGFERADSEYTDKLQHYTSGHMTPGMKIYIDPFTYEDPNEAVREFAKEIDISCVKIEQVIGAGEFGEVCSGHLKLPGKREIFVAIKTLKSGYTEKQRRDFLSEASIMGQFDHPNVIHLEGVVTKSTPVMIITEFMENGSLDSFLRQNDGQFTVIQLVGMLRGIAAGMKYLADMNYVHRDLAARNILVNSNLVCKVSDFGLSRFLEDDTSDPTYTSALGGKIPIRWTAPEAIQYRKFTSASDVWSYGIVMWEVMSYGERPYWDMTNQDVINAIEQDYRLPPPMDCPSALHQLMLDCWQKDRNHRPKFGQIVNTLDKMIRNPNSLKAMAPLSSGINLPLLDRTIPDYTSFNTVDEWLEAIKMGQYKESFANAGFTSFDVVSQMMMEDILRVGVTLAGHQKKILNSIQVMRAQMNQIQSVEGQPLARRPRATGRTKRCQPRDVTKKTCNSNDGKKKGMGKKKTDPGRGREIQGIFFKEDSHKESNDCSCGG
# Sequence of DYRK3 (O43781 whole entry, species assumed): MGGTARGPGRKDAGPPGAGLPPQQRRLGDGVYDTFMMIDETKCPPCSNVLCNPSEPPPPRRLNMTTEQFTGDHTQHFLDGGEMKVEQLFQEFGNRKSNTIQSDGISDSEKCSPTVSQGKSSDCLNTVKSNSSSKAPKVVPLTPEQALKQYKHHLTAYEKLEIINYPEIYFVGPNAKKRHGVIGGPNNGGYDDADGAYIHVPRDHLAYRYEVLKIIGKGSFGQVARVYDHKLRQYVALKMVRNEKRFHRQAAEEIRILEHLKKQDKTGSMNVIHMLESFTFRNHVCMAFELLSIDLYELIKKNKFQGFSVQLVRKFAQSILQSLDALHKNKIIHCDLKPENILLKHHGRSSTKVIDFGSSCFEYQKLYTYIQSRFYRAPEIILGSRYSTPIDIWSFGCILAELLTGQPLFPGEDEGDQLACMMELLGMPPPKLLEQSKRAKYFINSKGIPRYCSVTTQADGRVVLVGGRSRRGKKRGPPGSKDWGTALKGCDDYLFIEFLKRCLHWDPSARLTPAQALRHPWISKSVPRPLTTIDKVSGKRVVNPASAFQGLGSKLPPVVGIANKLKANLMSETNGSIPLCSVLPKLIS
# Sequence of p38d MAPK (O15264 whole entry): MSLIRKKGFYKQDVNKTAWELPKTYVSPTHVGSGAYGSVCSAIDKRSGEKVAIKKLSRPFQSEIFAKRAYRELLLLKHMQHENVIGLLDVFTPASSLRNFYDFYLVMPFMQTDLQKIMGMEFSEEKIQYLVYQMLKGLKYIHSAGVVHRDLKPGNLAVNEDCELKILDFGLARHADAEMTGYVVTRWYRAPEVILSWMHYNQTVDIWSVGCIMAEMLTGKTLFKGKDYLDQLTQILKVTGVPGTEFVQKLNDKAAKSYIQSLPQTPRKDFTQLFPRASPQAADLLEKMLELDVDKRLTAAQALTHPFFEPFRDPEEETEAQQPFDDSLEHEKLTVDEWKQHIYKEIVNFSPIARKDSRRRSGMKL
# Sequence of MAPKAP-K2 (P49137 whole entry, species assumed): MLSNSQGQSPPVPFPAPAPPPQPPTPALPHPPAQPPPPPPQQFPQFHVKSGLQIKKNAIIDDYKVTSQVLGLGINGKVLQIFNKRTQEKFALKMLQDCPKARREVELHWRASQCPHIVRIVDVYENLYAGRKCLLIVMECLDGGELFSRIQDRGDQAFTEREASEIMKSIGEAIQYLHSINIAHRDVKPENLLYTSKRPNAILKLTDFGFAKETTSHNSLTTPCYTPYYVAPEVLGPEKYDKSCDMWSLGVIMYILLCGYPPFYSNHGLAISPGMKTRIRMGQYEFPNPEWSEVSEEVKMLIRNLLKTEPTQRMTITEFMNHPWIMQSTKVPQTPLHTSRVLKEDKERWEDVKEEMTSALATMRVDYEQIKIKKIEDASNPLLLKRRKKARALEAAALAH
compound,measurement,setting,value
"CNc1nc(Nc2ccc(C(=O)N3CCOCC3)cc2OC)nc2[nH]cc(Cl)c12 [Compound 18, (4-((5-chloro-4-(methylamino)-7H-pyrrolo[2,3-d]pyrimidin-2-yl)amino)-3-methoxyphenyl)(morpholino)methanone]",KinomeScan value,PKMYT1,100
same,remaining activity at 1 µM,TLK1; [1],106%
same,remaining activity at 1 µM,TLK1; [2],105%
same,remaining activity at 1 µM,PIM1; [1],95%
same,remaining activity at 1 µM,PIM1; [2],88%
same,remaining activity at 1 µM,MAP4K5; [1],110%
same,remaining activity at 1 µM,MAP4K5; [2],92%
same,percent remaining enzymatic activity,"AMPK; I1, 1 μM",112%
same,percent remaining enzymatic activity,AMPK; I10,103%
same,KinomeScan value,FLT3 (ITD),94
same,KinomeScan value,JNK1,60
same,remaining activity at 1 µM,EF2K; [1],105%
same,remaining activity at 1 µM,EF2K; [2],102%
same,remaining activity at 1 µM,ULK2; [1],110%
same,remaining activity at 1 µM,ULK2; [2],95%
same,KinomeScan value,MET (Y1235D),100
same,remaining activity at 1 µM,TTK; [1],69%
same,remaining activity at 1 µM,TTK; [2],12%
same,remaining activity at 1 µM,OSR1; [1],61%
same,remaining activity at 1 µM,OSR1; [2],12%
same,remaining activity at 1 µM,HIPK2; [1],84%
same,remaining activity at 1 µM,HIPK2; [2],43%
same,remaining activity at 1 µM,MAPKAP-K2; [1],86%
same,remaining activity at 1 µM,MAPKAP-K2; [2],40%
same,KinomeScan value,p38-alpha,96
same,percent remaining enzymatic activity,CDK2-Cyclin A; I10,67%
same,remaining activity at 1 µM,CDK2-Cyclin A; [3],102%
same,KinomeScan value,CDK8,74
same,percent remaining enzymatic activity,EPHB2; I10,58%
same,remaining activity at 1 µM,EPHB2; [3],60%
same,remaining activity at 1 µM,PAK4; [1],102%
same,remaining activity at 1 µM,PAK4; [2],92%
same,KinomeScan value,EGFR (E746-A750del),100
same,remaining activity at 1 µM,p38d MAPK; [1],107%
same,remaining activity at 1 µM,p38d MAPK; [2],102%
same,KinomeScan value,SIK,94
same,remaining activity at 1 µM,DYRK3; [1],74%
same,remaining activity at 1 µM,DYRK3; [2],30%
same,IC50,wild type LRRK2,6.5 nM
same,remaining activity at 1 µM,HIPK1; [1],95%
same,remaining activity at 1 µM,HIPK1; [2],44%
same,remaining activity at 1 µM,MSK1; [1],109%
same,remaining activity at 1 µM,MSK1; [2],99%
same,remaining activity at 1 µM,EPH-B4; [1],80%
same,remaining activity at 1 µM,EPH-B4; [2],86%
same,KinomeScan value,CDK3,96
same,KinomeScan value,IRAK4,100
same,percent remaining enzymatic activity,"PHK; I1, 1 μM",13%
same,percent remaining enzymatic activity,PHK; I10,1%
same,remaining activity at 1 µM,p38g MAPK; [1],116%
same,remaining activity at 1 µM,p38g MAPK; [2],96%
same,KinomeScan value,CSNK1G3,100
same,percent remaining enzymatic activity,WNK1; I10,115%
same,remaining activity at 1 µM,WNK1; [3],108%
same,KinomeScan value,DCAMKL1,74
same,remaining activity at 1 µM,TBK1; [1],88%
same,remaining activity at 1 µM,TBK1; [2],67%
